Consider 14 compounds from ChEMBL document CHEMBL1130591, “P2-proline-derived inhibitors of calpain I” (Bioorg Med Chem Lett, 1998).

For assay [1], the target named is T1, Calpain-1 catalytic subunit (Homo sapiens, UniProt P07384).
T1 sequence (P07384 whole entry): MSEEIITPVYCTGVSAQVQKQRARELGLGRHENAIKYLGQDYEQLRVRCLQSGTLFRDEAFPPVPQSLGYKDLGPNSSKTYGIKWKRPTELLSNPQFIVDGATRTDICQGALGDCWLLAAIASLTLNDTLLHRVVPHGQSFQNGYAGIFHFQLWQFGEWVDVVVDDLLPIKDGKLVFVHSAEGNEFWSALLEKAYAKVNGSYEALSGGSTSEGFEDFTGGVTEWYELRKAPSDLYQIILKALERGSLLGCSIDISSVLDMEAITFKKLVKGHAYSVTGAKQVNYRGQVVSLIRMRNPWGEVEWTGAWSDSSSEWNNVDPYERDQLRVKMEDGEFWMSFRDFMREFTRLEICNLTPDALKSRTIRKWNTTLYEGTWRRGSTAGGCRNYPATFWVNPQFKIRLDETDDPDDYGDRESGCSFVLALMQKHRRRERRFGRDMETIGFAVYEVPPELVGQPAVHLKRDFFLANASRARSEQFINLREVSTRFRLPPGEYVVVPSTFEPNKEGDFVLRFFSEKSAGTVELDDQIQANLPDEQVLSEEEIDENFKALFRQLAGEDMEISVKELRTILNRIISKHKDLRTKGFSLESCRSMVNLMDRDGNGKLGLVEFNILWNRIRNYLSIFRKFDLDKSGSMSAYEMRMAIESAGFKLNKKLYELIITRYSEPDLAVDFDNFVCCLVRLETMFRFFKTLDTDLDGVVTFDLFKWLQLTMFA
The assay can be described thus: Compound was tested for inhibitory activity against recombinant human Calpain 1.

For assay [2], the target named is Cathepsin B (Homo sapiens, UniProt P07858). The assay can be described thus: Compound was tested for inhibitory activity against Cathepsin B.
In assay [3] the target is T2, Calpain-1 catalytic subunit (Homo sapiens) (UniProt P07384).
T2 sequence (whole entry): T1 sequence (P07384 whole entry)
Briefly: Compound was tested for inhibitory activity against recombinant human Calpain 1 at concentration of 1 uM.

The target in assay [4] is Chymotrypsinogen A (Bos taurus) (UniProt P00766). Briefly: Compound was tested for inhibitory activity against alpha-chymotrypsin at concentration of 1 uM.
Assay [5] shares this target. The assay can be described thus: Compound was tested for inhibitory activity against alpha-chymotrypsin at concentration of 10 uM.

Molecules are shown by their SMILES. Non-standard residues stand in square brackets, D forms with d. Residues, ends and D or L forms follow the SMILES beside them. *: point of attachment. Tos = Cc1ccc(S(=O)(=O)*)cc1; Ms = CS(=O)(=O)* A value given as a limit tells only on which side of the number the result lay.

By IC50 is commonly meant the concentration that gives 50% inhibition. For `O=C[C@H](Cc1ccccc1)NC(=O)[C@@H]1CCCN1S(=O)(=O)c1ccccc1`, the IC50 stood at 0.041 µM in assay [1] and 1.4 µM in assay [2]. As for `O=C[C@H](Cc1ccccc1)NC(=O)[C@@H]1C[C@@H](OCc2ccccc2)CN1S(=O)(=O)c1ccccc1`, in assay [1], the IC50 was found to be 0.125 µM. Regarding `O=C[C@H](Cc1ccccc1)NC(=O)[C@@H]1C[C@@H](OS(=O)(=O)c2ccccc2)CN1S(=O)(=O)c1ccccc1`, the IC50 in assay [1] is 0.013 µM; in assay [2] it was 0.038 µM. One may read the inhibition as the percentage by which the read-out fell short of the control. Consider `Cc1ccc(S(=O)(=O)N2C[C@@H](OS(C)(=O)=O)C[C@@H]2C(=O)N[C@H](C=O)Cc2ccccc2)cc1`, for which the inhibition in assay [3] was found to be 79%.

Regarding `Cc1ccc(S(=O)(=O)O[C@@H]2C[C@H](C(=O)N[C@H](C=O)Cc3ccccc3)N(S(=O)(=O)c3ccccc3)C2)cc1`, the inhibition in assay [3] was 48%. Turning to `Cc1ccc(S(=O)(=O)O[C@H]2C[C@H](C(=O)N[C@H](C=O)Cc3ccccc3)N(S(=O)(=O)c3ccc(C)cc3)C2)cc1`, the inhibition in assay [3] is 74%. Compound `O=C[C@H](Cc1ccccc1)NC(=O)[C@H]1C[C@H](OS(=O)(=O)c2ccccc2)CN1S(=O)(=O)c1ccccc1` gave an inhibition in assay [4] of 42%.

On to `CS(=O)(=O)N1CCC[C@H]1C(=O)N[C@H](C=O)Cc1ccccc1` (Ms-Pro-Phe-aldehyde), for which the values for the IC50 in assay [1] and in assay [2] were 0.045 µM and 0.883 µM, respectively. `CS(=O)(=O)N1CCC[C@@H]1C(=O)N[C@H](C=O)Cc1ccccc1` (Ms-[dP]-Phe-aldehyde): the IC50 in assay [2] turned out to be 3 µM. The same compound yielded an inhibition in assay [5] of 2%. In assay [2], `Cc1ccc(S(=O)(=O)N2CCC[C@@H]2C(=O)N[C@H](C=O)Cc2ccccc2)cc1` (Tos-[dP]-Phe-aldehyde) registered an IC50 of 3.6 µM. In assay [5], the inhibition came out at 12%. Take `Cc1ccc(S(=O)(=O)N2C[C@H](NC(=O)C(F)(F)F)CC2C(=O)N[C@H](C=O)Cc2ccccc2)cc1` (single isomer, unassigned): the IC50 in assay [1] is 0.1 µM. As to `Cc1ccc(S(=O)(=O)N2C[C@H](C#N)CC2C(=O)N[C@H](C=O)Cc2ccccc2)cc1` (single isomer, unassigned), the IC50 in assay [1] was determined as 0.028 µM; in assay [2] it was 8.7 µM. Further, in assay [5], the inhibition is 6%. The compound `Cc1ccc(S(=O)(=O)N2C[C@H](N=[N+]=[N-])CC2C(=O)N[C@H](C=O)Cc2ccccc2)cc1` (single isomer, unassigned) showed an IC50 in assay [2] above 10 µM. In assay [5], the inhibition was found to be 9%.

As to `Cc1ccc(S(=O)(=O)N2C[C@H](NS(C)(=O)=O)CC2C(=O)N[C@H](C=O)Cc2ccccc2)cc1` (single isomer, unassigned), in assay [3], the inhibition is 40%.
